From US8575091B1, “Amylin analogues and pharmaceutical compositions thereof” (Novo Nordisk A/S, priority 2012, dated 2013)
Numbered stars: 1 amine (or outer) side, 2 acyl side, 3 side chain; on linkers, the order of the positions; unused ones are H or OH. Bridge positions count the residues as written; N and C are the ends. Side chains are listed from the residue outwards. Peptide text beside a SMILES is read from it. * marks the point of attachment. C20 diacid = O=C(O)CCCCCCCCCCCCCCCCCCC(=O)*; γGlu = O=C(O)[C@H](CCC(=O)[*:2])N[*:1]

Molecular target: T1, human amylin receptor (amylin 3(a) receptor: human calcitonin receptor + RAMP-3) (Homo sapiens, UniProt O60896+P30988)
T1 construct: expressed in transfected cells
T1 sequence (P30988 25-474): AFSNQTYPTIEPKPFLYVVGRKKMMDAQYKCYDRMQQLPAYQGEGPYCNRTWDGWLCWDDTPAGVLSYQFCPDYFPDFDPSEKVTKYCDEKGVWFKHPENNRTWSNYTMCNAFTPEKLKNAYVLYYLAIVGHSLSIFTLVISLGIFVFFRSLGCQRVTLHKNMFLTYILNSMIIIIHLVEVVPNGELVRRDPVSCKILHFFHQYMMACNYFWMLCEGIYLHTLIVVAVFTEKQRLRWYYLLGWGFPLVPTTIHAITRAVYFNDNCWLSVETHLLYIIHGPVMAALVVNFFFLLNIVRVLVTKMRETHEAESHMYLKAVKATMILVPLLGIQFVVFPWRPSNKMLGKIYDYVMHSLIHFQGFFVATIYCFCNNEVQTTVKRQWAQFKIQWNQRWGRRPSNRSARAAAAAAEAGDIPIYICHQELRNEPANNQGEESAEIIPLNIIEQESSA
T1 sequence (O60896 24-148 partner): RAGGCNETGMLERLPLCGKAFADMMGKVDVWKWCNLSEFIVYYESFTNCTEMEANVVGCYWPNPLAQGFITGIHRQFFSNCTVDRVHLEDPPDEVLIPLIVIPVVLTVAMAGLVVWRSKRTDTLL
Test: Assay (II)a functional assay, human amylin receptor (CRE luciferase, BHK cells)
Format: cell-based

[1] = Table 6, human functional selectivity (hCTR EC50 / hAmylin-R EC50)
[2] = Table 6a, human functional selectivity (hCTR EC50 / hAmylin-R EC50), at least 5
[3] = Table 6j, hCTR funct. EC50 / hAmylin-R funct. EC50
[4] = Table 6k, hCTR funct. EC50 / hAmylin-R funct. EC50

| Ratio hCT/hAmylin funct. [1] | Ratio hCT/hAmylin funct. [2] | Ratio hCT/hAmylin funct. (Table 6i, hCTR funct. EC50 / hAmylin-R funct. EC50) | Ratio hCT/hAmylin funct. [3] | Ratio hCT/hAmylin funct. [4] | Compound |
| --- | --- | --- | --- | --- | --- |
| 6.5 | 6.5 | 6.5 | 6.5 | 6.5 | CC[C@H](C)[C@H](NC(=O)[C@H](C)NC(=O)CNC(=O)[C@H](Cc1ccccc1)NC(=O)[C@H](CC(N)=O)NC(=O)[C@@H]1CCCN1C(=O)[C@H](CO)NC(=O)[C@H](CO)NC(=O)[C@H](Cc1c[nH]cn1)NC(=O)[C@H](CCCNC(=N)N)NC(=O)[C@H](CC(C)C)NC(=O)[C@H](Cc1ccccc1)NC(=O)[C@H](CCC(=O)O)NC(=O)[C@H](C)NC(=O)[C@H](CC(C)C)NC(=O)[C@H](CCCNC(=N)N)NC(=O)[C@H](CCC(N)=O)NC(=O)[C@@H](NC(=O)[C@H](C)NC(=O)[C@@H]1CSSC[C@H](NC(=O)[C@@H](N)CCCCNC(=O)CC[C@H](NC(=O)CCCCCCCCCCCCCCCCCCC(=O)O)C(=O)O)C(=O)N[C@@H](CC(N)=O)C(=O)N[C@@H]([C@@H](C)O)C(=O)N[C@@H](C)C(=O)N[C@@H]([C@@H](C)O)C(=O)N1)[C@@H](C)O)C(=O)N1CCC[C@H]1C(=O)N[C@@H](CO)C(=O)N[C@@H](CO)C(=O)N[C@H](C(=O)N[C@@H](CC(N)=O)C(=O)N[C@H](C(=O)NCC(=O)N[C@@H](CCCNC(=N)N)C(=O)N[C@@H](CCC(=O)O)C(=O)N[C@H](C(=O)N[C@@H](Cc1ccc(O)cc1)C(N)=O)[C@@H](C)O)C(C)C)[C@@H](C)O [Example 108] (H-K([γGlu-C20 diacid])CNTATCATQRLAEFLRHSSPNFGAIPSSTNVGRETY-NH2; disulfide 2-7 (inferred); N-terminus and C-terminus assumed) |
| 15.0 | 15.0 | – | 15.0 | 15.0 | CC[C@H](C)[C@H](NC(=O)[C@H](C)NC(=O)CNC(=O)[C@H](Cc1ccccc1)NC(=O)[C@H](CC(N)=O)NC(=O)[C@@H]1CCCN1C(=O)[C@H](CO)NC(=O)[C@H](CO)NC(=O)[C@H](Cc1c[nH]cn1)NC(=O)[C@H](CCCNC(=N)N)NC(=O)[C@H](CC(C)C)NC(=O)[C@H](Cc1ccccc1)NC(=O)[C@H](CC(N)=O)NC(=O)[C@H](C)NC(=O)[C@H](CC(C)C)NC(=O)[C@H](CCCNC(=N)N)NC(=O)[C@H](CCC(N)=O)NC(=O)[C@@H](NC(=O)[C@H](C)NC(=O)[C@@H]1CSSC[C@H](NC(=O)[C@@H](N)CCCCNC(=O)CC[C@H](NC(=O)CCCCCCCCCCCCCCCCCCC(=O)O)C(=O)O)C(=O)N[C@@H](CC(N)=O)C(=O)N[C@@H]([C@@H](C)O)C(=O)N[C@@H](C)C(=O)N[C@@H]([C@@H](C)O)C(=O)N1)[C@@H](C)O)C(=O)N1CCC[C@H]1C(=O)N[C@@H](CO)C(=O)N[C@@H](CO)C(=O)N[C@H](C(=O)N[C@@H](CC(N)=O)C(=O)N[C@H](C(=O)NCC(=O)N[C@@H](CO)C(=O)N[C@@H](CCCCN)C(=O)N[C@H](C(=O)N[C@@H](Cc1ccc(O)cc1)C(N)=O)[C@@H](C)O)C(C)C)[C@@H](C)O [Example 35] (H-K([γGlu-C20 diacid])CNTATCATQRLANFLRHSSPNFGAIPSSTNVGSKTY-NH2; disulfide 2-7; N-terminus assumed) |
